From US11174232B2, “Substituted heterocyclyl derivatives as CDK inhibitors” (Aurigene Discovery Technologies Limited, priority 2015, dated 2021)

Biological target: CDK7/CycH/MNAT1 (Homo sapiens (Human), UniProt P50613)
Assay: Biochemical Assay for CDK7 (TR-FRET kinase assay)
Conditions: 60 min pre-incubation with kinase, 1 mM ATP; for inhibition at 10 µM / % inhibition @ 10 μM: 10 μM compound
Protocol: Biochemical Assay for CDK7:
The ability of compounds to inhibit CDK7 kinase activity was tested in a TR-FRET assay using 5 nM of CDK7/CycH/MNAT1 obtained from Invitrogen, USA. Test compounds were pre-incubated with the kinase at room temperature for 60 min. After the incubation, substrate mix [100 nM Ultra-light MBP (Perkin Elmer, USA) and 1 mM ATP (Sigma)] was added. The above reaction was stopped by the addition of 40 mM EDTA after 60 minutes of kinase reaction. 1 nM Eu-labelled antiphospho-MBP antibody [Perkin Elmer, USA] was added, mixed well and the fluorescence emission at 615 nm and 665 nm [excitation at 340 nm] was measured. The final DMSO concentration in the assay was 1%. For IC50 determination, appropriate concentrations were made by ⅓^rd serial dilutions of 10 mM DMSO stock solution of test compound. All the fluorescence measurements were made in a Victor 3 Multilabel Counter [Perkin Elmer, USA]. The IC50 was determined by fitting the dose response data to sigmoidal curve fitting equation using GraphPad Prism software V5. To identify compounds that inhibit CDK7 irreversibly, time depended inhibition studies were carried by pre-incubating compound with the enzyme at three time points (20, 60 and 180 min) and carrying out assay as described above.
The compounds were screened by the above mentioned assay procedure.

Chain of CDK7/CycH/MNAT1 (P50613 whole entry): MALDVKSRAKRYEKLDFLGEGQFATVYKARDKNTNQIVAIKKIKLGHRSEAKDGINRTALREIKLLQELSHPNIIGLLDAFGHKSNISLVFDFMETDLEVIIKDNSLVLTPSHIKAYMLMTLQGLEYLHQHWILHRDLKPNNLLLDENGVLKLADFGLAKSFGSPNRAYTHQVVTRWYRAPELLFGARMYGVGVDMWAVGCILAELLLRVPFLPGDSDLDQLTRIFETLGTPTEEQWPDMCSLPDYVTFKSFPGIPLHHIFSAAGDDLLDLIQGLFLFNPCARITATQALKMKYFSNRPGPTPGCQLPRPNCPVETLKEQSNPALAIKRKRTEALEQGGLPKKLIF
Chain of CDK7/CycH/MNAT1 (P51946 whole entry partner): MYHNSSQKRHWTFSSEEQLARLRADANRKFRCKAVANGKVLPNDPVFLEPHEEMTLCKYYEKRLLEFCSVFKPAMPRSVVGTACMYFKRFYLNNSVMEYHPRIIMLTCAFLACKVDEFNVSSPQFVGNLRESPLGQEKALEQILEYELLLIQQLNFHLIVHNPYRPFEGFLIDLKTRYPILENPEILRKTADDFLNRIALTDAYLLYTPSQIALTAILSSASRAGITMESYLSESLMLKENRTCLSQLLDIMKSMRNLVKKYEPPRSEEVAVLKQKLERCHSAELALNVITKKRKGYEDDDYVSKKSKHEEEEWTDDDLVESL
Chain of CDK7/CycH/MNAT1 (P51948 whole entry partner): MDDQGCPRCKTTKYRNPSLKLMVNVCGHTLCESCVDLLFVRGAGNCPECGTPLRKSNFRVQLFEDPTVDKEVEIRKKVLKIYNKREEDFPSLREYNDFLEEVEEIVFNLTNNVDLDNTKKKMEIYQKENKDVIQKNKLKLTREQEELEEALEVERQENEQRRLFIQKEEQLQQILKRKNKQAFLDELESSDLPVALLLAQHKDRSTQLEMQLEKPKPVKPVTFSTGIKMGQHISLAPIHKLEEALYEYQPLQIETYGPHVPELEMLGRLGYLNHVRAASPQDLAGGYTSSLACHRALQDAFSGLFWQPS

Structure (SMILES)	inhibition at 10 µM	IC50	% inhibition @ 10 μM
CC(C(=O)Nc1cc(C2CC2)[nH]n1)c1cccc(-c2ccc(NC(=O)/C=C/CN3CCCCC3)cn2)c1 (stereo not shown) [Compound 39, (E)-N-(6-(3-(1-((5-cyclopropyl-1H-pyrazol-3-yl)amino)-1-oxopropan-2-yl)phenyl)pyridin-3-yl)-4-(piperidin-1-yl)but-2-enamide]	84%	> 0.1 µM	–
CC(C(=O)Nc1cc(C2CC2)[nH]n1)c1cccc(-c2ccc(NC(=O)/C=C/CN3CC[C@H](F)C3)nc2)c1 (stereo partly drawn) [Compound 46, (E)-N-(5-(3-(1-((5-cyclopropyl-1H-pyrazol-3-yl)amino)-1-oxopropan-2-yl)phenyl)pyridin-2-yl)-4-((S)-3-fluoropyrrolidin-1-yl)but-2-enamide]	95%	< 0.025 µM	–
C=CC(=O)Nc1ccc(-c2cccc(C(C)C(=O)Nc3cc(C4CC4)[nH]n3)c2)cn1 (single isomer, unassigned) [Compound 21, N-(5-(3-(1-((5-cyclopropyl-1H-pyrazol-3-yl)amino)-1-oxopropan-2-yl)phenyl)pyridin-2-yl)acrylamide]	89%	> 0.1 µM	–
C=CC(=O)Nc1ccc(-c2cccc(C(C)C(=O)Nc3cc(C4CC4)[nH]n3)c2)cc1OC (stereo not shown) [Compound 65, N-(3′-(1-((5-cyclopropyl-1H-pyrazol-3-yl)amino)-1-oxopropan-2-yl)-3-methoxy-[1,1′-biphenyl]-4-yl)acrylamide]	94%	> 0.1 µM	–
CC(C(=O)Nc1cc(C2CC2)[nH]n1)c1cccc(-c2ccc(NC(=O)/C=C/CN(C)C)cc2)c1 (single isomer, unassigned) [Compound 3, (E)-N-(3′-(1-((5-cyclopropyl-1H-pyrazol-3-yl)amino)-1-oxopropan-2-yl)-[1,1′-biphenyl]-4-yl)-4-(dimethylamino)but-2-enamide]	–	0.025 to 0.1 µM	99%
CC(C(=O)Nc1cc(C2CC2)[nH]n1)c1cccc(-c2ccc(NC(=O)/C=C/CN(C)C)cc2F)c1 (stereo not shown) [Compound 17, (E)-N-(3′-(1-((5-cyclopropyl-1H-pyrazol-3-yl)amino)-1-oxopropan-2-yl)-2-fluoro-[1,1′-biphenyl]-4-yl)-4-(dimethylamino)but-2-enamide]	80%	> 0.1 µM	–
CC(C(=O)Nc1cc(C2CC2)[nH]n1)c1cccc(-c2ccc(NC(=O)/C=C/CN3CCCC(F)C3)nc2)c1 (stereo not shown) [Compound 57, (E)-N-(5-(3-(1-((5-cyclopropyl-1H-pyrazol-3-yl)amino)-1-oxopropan-2-yl)phenyl)pyridin-2-yl)-4-(3-fluoropiperidin-1-yl)but-2-enamide]	98%	< 0.025 µM	–
CC(C(=O)Nc1cc(C2CC2)[nH]n1)c1cccc(-c2ccc(NC(=O)/C=C/CN3CCOCC3)nc2)c1 (single isomer, unassigned) [Compound 11, (E)-N-(5-(3-(1-((5-cyclopropyl-1H-pyrazol-3-yl)amino)-1-oxopropan-2-yl)phenyl)pyridin-2-yl)-4-morpholinobut-2-enamide]	–	> 0.1 µM	75%
CC(C(=O)Nc1cc(C2CC2)[nH]n1)c1cccc(-c2ccc3c(c2)CCN3C(=O)/C=C/CN(C)C)c1 (stereo not shown) [Compound 29, (E)-N-(5-cyclopropyl-1H-pyrazol-3-yl)-2-(3-(1-(4-(dimethylamino)but-2-enoyl)indolin-5-yl)phenyl)propanamide]	97%	< 0.025 µM	–
CC(C(=O)Nc1cc(C2CC2)[nH]n1)c1cccc(-c2ccc(NC(=O)/C=C/CN3CCCCC3)nc2)c1 (stereo not shown) [Compound 40, (E)-N-(5-(3-(1-((5-cyclopropyl-1H-pyrazol-3-yl)amino)-1-oxopropan-2-yl)phenyl)pyridin-2-yl)-4-(piperidin-1-yl)but-2-enamide]	100%	< 0.025 µM	–
CCN(CC)C/C=C/C(=O)Nc1ccc(-c2cccc(C(C)C(=O)Nc3cc(C4CC4)[nH]n3)c2)cc1F (stereo not shown) [Compound 32, (E)-N-(3′-(1-((5-cyclopropyl-1H-pyrazol-3-yl)amino)-1-oxopropan-2-yl)-3-fluoro-[1,1′-biphenyl]-4-yl)-4-(diethylamino)but-2-enamide]	100%	< 0.025 µM	–
CC(C(=O)Nc1cc(C2CC2)[nH]n1)c1cccc(-c2ccc(NC(=O)/C=C/CN3CCCC3)c(F)c2)c1 (stereo not shown) [Compound 33, (E)-N-(3′-(1-((5-cyclopropyl-1H-pyrazol-3-yl)amino)-1-oxopropan-2-yl)-3-fluoro-[1,1′-biphenyl]-4-yl)-4-(pyrrolidin-1-yl)but-2-enamide]	97%	0.025 to 0.1 µM	–
CC(C(=O)Nc1cc(C2CC2)[nH]n1)c1ccc(F)c(-c2ccc(NC(=O)/C=C/CN(C)C)cc2)c1 (stereo not shown) [Compound 4, (E)-N-(5′-(1-((5-cyclopropyl-1H-pyrazol-3-yl)amino)-1-oxopropan-2-yl)-2′-fluoro-[1,1′-biphenyl]-4-yl)-4-(dimethylamino)but-2-enamide]	95%	> 0.1 µM	–
COC/C=C/C(=O)Nc1ccc(-c2cccc(C(C)C(=O)Nc3cc(C4CC4)[nH]n3)c2)cn1 (stereo not shown) [Compound 41, (E)-N-(5-(3-(1-((5-cyclopropyl-1H-pyrazol-3-yl)amino)-1-oxopropan-2-yl)phenyl)pyridin-2-yl)-4-methoxybut-2-enamide]	90%	> 0.1 µM	–
C=CC(=O)Nc1ccc(-c2cccc(C(CC)C(=O)Nc3cc(C4CC4)[nH]n3)c2)cc1F (stereo not shown) [Compound 27, 2-(4′-acrylamido-3′-fluoro-[1,1′-biphenyl]-3-yl)-N-(5-cyclopropyl-1H-pyrazol-3-yl)butanamide]	98%	< 0.025 µM	–
CON(C)C/C=C/C(=O)Nc1ccc(-c2cccc(C(C)C(=O)Nc3cc(C4CC4)[nH]n3)c2)cn1 (stereo not shown) [Compound 62, (E)-N-(5-(3-(1-((5-cyclopropyl-1H-pyrazol-3-yl)amino)-1-oxopropan-2-yl)phenyl)pyridin-2-yl)-4-(methoxy(methyl)amino)but-2-enamide]	81%	> 0.1 µM	–
COC(=O)[C@@H]1CCCN1C/C=C/C(=O)Nc1ccc(-c2cccc(C(C)C(=O)Nc3cc(C4CC4)[nH]n3)c2)cn1 (stereo partly drawn) [Compound 81, methyl ((E)-4-((5-(3-(1-((5-cyclopropyl-1H-pyrazol-3-yl)amino)-1-oxopropan-2-yl)phenyl)pyridin-2-yl)amino)-4-oxobut-2-en-1-yl)-L-prolinate]	100%	0.025 to 0.1 µM	–
C=CC(=O)Nc1ccc(-c2cccc(C(C)C(=O)Nc3cc(C4CC4)[nH]n3)c2)nc1 (stereo not shown) [Compound 24, N-(6-(3-(1-((5-cyclopropyl-1H-pyrazol-3-yl)amino)-1-oxopropan-2-yl)phenyl)pyridin-3-yl)acrylamide]	96%	0.025 to 0.1 µM	–
CC(C(=O)Nc1cc(C2CC2)[nH]n1)c1cccc(-c2ccc(NC(=O)/C=C/CN3CCCC3)nc2)c1 (single isomer, unassigned) [Compound 54, (E)-N-(5-(3-(1-((5-cyclopropyl-1H-pyrazol-3-yl)amino)-1-oxopropan-2-yl)-phenyl)pyridin-2-yl)-4-(pyrrolidin-1-yl)but-2-enamide]	–	< 0.025 µM	78%
C=CC(=O)Nc1ccc(-c2cccc(C(C)C(=O)Nc3cc(C4CC4)[nH]n3)c2)cn1 (stereo not shown) [Compound 20, N-(5-(3-(1-((5-cyclopropyl-1H-pyrazol-3-yl)amino)-1-oxopropan-2-yl)phenyl)pyridin-2-yl)acrylamide]	100%	< 0.025 µM	–
COCCN(C)C/C=C/C(=O)Nc1ccc(-c2cccc(C(C)C(=O)Nc3cc(C4CC4)[nH]n3)c2)cn1 (stereo not shown) [Compound 68, (E)-N-(5-(3-(1-((5-cyclopropyl-1H-pyrazol-3-yl)amino)-1-oxopropan-2-yl)phenyl)pyridin-2-yl)-4-((2-methoxyethyl)(methyl)amino)but-2-enamide]	95%	< 0.025 µM	–
C=CC(=O)Nc1ccc(C(=O)Nc2cccc(Nc3cc(CC)[nH]n3)c2)cc1 [Compound 83, 4-acrylamido-N-(3-((5-ethyl-1H-pyrazol-3-yl)amino)phenyl)benzamide]	62%	> 0.1 µM	–
C=CC(=O)Nc1ccc(-c2cccc(C(C)C(=O)Nc3cc(C4CC4)[nH]n3)c2)cc1C (stereo not shown) [Compound 66, N-(3′-(1-((5-cyclopropyl-1H-pyrazol-3-yl)amino)-1-oxopropan-2-yl)-3-methyl-[1,1′-biphenyl]-4-yl)acrylamide]	88%	> 0.1 µM	–
COC[C@@H]1CCCN1C/C=C/C(=O)Nc1ccc(-c2cccc(C(C)C(=O)Nc3cc(C4CC4)[nH]n3)c2)cn1 (single isomer, unassigned) [Compound 71]	81%	> 0.1 µM	–
CC(C)C(C(=O)Nc1cc(C2CC2)[nH]n1)c1cccc(-c2ccc(NC(=O)/C=C/CN(C)C)nc2)c1 (stereo not shown) [Compound 56, (E)-N-(5-(3-(1-((5-cyclopropyl-1H-pyrazol-3-yl)amino)-3-methyl-1-oxobutan-2-yl)phenyl)pyridin-2-yl)-4-(dimethylamino)but-2-enamide]	96%	< 0.025 µM	–
CCC(C(=O)Nc1cc(C2CC2)[nH]n1)c1cccc(-c2ccc(NC(=O)/C=C/CN(C)C)c(F)c2)c1 (stereo not shown) [Compound 31, (E)-N-(3′-(1-((5-cyclopropyl-1H-pyrazol-3-yl)amino)-1-oxobutan-2-yl)-3-fluoro-[1,1′-biphenyl]-4-yl)-4-(dimethylamino)but-2-enamide]	100%	< 0.025 µM	–
